This note sets out measurements from patent publication US20050037446A1, “Agents that recognize src when phosphorylated at serine 17” (priority 2001, published 2005).

The test system of the assay is Rap1. The experiment in a line: Rap1 activation assay in Src++ and SYF fibroblasts. The class given is cell-based, mouse. Here is the method:
The Rap1 activation affinity assay was performed as follows. A GST fusion protein of the Rap1-binding domain of RalGDS (GST-RalGDS, Dr. Bos, Utrecht University, The Netherlands) was expressed in E. coli following induction by isopropyl-1thio-β-D-galactopyranoside. Active Rap1 was isolated as previously described (Franke et al., EMBO J. 16:252-9, 1997). Briefly, equivalent amounts of supernatants (500 μg) were incubated with GST-RalGDS-Rap1 binding domain coupled to glutathione beads. Following a one hour incubation at 4° C., beads were pelleted and rinsed threes times with ice-cold lysis buffer. The protein was eluted from the beads using 2× Laemmli buffer and applied to a 12% SDS-polyacrylamide gel. […] Proteins were detected using enhanced chemiluminescence. […]
Following selection, SYF cells were left untreated or stimulated with Forskolin in the presence or absence of H89 or PP2. Cells were lysed in ice-cold lysis buffer and the lysates analyzed by Western blot for phosphorylation of myc-ERK2 as described above. […]
SYF cells were co-transfected with Flag-Rap1 and either vector, Flag-Src, or Flag-SrcS 17A and stimulated with Forskolin as described in the above examples. Cell lysates were examined for Rap1 activation using the method described in EXAMPLE 1 or analyzed by Western blot to identify Flag-containing proteins. […]

With `CC(C)NCC(O)c1ccc(O)c(O)c1` (centres unmarked) [isoproterenol], the “Rap1 activation by agonist” value reads like this: (SYF cells) “absent”; (Src++ cells) “retained”.
